Like-named read-outs stand apart in the source and are kept apart here.
Legend:
NOS1−/− myocytes [1] = test: SR Ca2+ leakage protocol, Example 1 (0Na/0Ca buffer, caffeine); assay type: cell-based, mouse
Description: The hearts were cannulated and perfused trough the aorta with Ca^2+-free bicarbonate buffer containing (in mM) 120 NaCl, 5.4 KCl, 1.2 MgSO4, 1.2 NaH2PO4, 5.6 glucose, 20 NaHCO3, 10 2,3-butanedione monoxime (BDM; Sigma), and 5 taurine (Sigma), gassed with 95% O2-5% CO2, followed by enzymatic digestion with collagenase type 2 (1 mg/ml; Worthington) and protease type XIV (0.1 mg/ml; Sigma). Ventricular myocytes were obtained by mechanical disruption of digested hearts, filtration, centrifugation, and resuspension in a Tyrode solution containing (in mM) 0.125 mM CaCl2 144 NaCl, 1 MgCl2, 10 HEPES, 5.6 Glucose, 1.2 NaHPO4, 5 KCl, adjusted to a pH of 7.4 with NaOH. Then, the Ca^2+ content of the buffer was increased in steps until reaching 1.8 mM.
Myocytes were incubated with 5 μmol/L fura-2/AM (Molecular Probes, Eugene, Oreg.) then transferred to a Lucite chamber on the stage of an inverted microscope (Nikon TE 200), continuously superfused with Tyrode solution. Sarcomere length (SL) and Ca^2+ transients ([Ca^2+]i) were measured in myocytes stimulated at 1, 2, 4, 6 and 8 Hz. All experiments were conducted at 37° C.
Calcium leakage was assessed as described by Shannon et al (Shannon, T. R. et al., 2002. Circ. Res. 91:594-600). Ventricular myocytes were paced by field stimulation at the different frequencies in normal Tyrode until cellular Ca^2+ transients reached a steady state. After the last pulse, the superfusing solution was rapidly switched to 0Na^+-0Ca^2+ (Na^+ replaced by Li^+) Tyrode with or without 1 mmol/L tetracaine. In the control condition, [Ca^2+]i was monitored while 0Na^+-0Ca^2+ Tyrode buffer was applied at least 40 seconds, then a rapid pulse of 10 mm/L caffeine was added to cause SR Ca^2+ release. The difference between the basal and the peak total cytosolic [Ca^2+]i in the presence of caffeine is therefore [Ca^2+]T. In the test condition, 0Na+0Ca^2+ Tyrode was applied with tetracaine. In this condition, the leakage is blocked and the difference in [Ca^2+]T between tetracaine and control condition corresponds to diastolic leakage. […]

NOS1−/− myocytes [2] = test: Force-frequency response: sarcomere shortening and calcium transients; assay type: cell-based, mouse; conditions: hydralazine 0.01, nitroglycerin 0.01, DETA/NO 0.1 mmol/L, 5 minutes incubation
Description: (§1) Isolated Myocytes Preparation: Cardiac myocytes were isolated and prepared from mouse hearts as described in detail by Khan et al. (Khan S. A. et al. Circ Res 2003;92:1322-1329). Sarcomere length (SL) and [Ca^2+]i were measured simultaneously in myocytes stimulated at 1, 2, 4, 6 and 8 Hz. […] All experiments were conducted at 37° C. SL was recorded with an IonOptix iCCD camera. Change in average SL was determined by Fast Fourier Transform analysis of the Z-line density trace to the frequency domain, and SL Shortening was calculated as follows: (diastolic SL—systolic SL)/diastolic SL. Intracellular calcium, was measured using the Ca^2+-sensitive dye Fura-2 and a dual-excitation spectrofluorometer (IonOptix), alternately excited with a xenon lamp at wavelengths of 365 and 380 nm The emission fluorescence was reflected through a barrier filter (510±15 nm) to a photomultiplier tube. The Fura-2 fluorescence ratio, i.e., the ratio of the photon live count detected by the excitation at 365 nm compared with 380 nm, represents [Ca^2]i.

wt myocytes = test: as above; assay type: cell-based, mouse; conditions: hydralazine 0.01, nitroglycerin 0.01, DETA/NO 0.1 mmol/L, 5 minutes incubation
Description: as §1

NOS1−/− cardiomyocytes = test: Sarcoplasmic reticulum Ca2+ stores by rapid caffeine infusion; conditions: for Sarcoplasmic reticulum Ca2+ content (% [Ca2+]i, percent change from baseline): NOS1−/− cardiomyocytes, 4 Hz, caffeine 10 mmol/L, untreated NOS1−/− 13.7±3.1%; for Ca2+ reserves: NOS1−/− myocytes at 4 Hz
Description: In order to assess calcium stores, caffeine (10 mmol/L) was rapidly infused after a 10 second pause following steady-state pacing at 1 and 4 Hz. In order to calculate the [Ca^2+]i of caffeine pulse was normalized as follows:
([Ca^2+]i at caffeine−[Ca^2+]i at pacing)/[Ca^2+]i at pacing×100.
Experiments were then repeated after incubating the cells with previously mentioned drugs.

[3] = molecular target: T1, xanthine oxidoreductase (XOR) (Mus musculus, UniProt Q00519); test: Xanthine oxidoreductase activity, Amplex red superoxide production in heart homogenates; assay type: biochemical
T1 construct: NOS 1^−/− cardiac homogenates as source of the enzyme; from tissue; host or cells: heart homogenate of NOS1-/- mice, passed through Sephadex G-25
Description: (§2) Xanthine Oxidoreductase activity: XOR activity was investigated by measuring uric acid and superoxide production. Heart homogenates were passed through a Sephadex G-25 column (GE Healthcare, Piscataway, N.J.) and XOR-dependent superoxide production was measured using Amplex red (Molecular Probes, Eugene, Oreg.) (0.05 mmol/L), horseradish peroxidase (HRP, 0.2 U/ml) and xanthine (0.1 mmol/L). In the assay, xanthine oxidase catalyzes the oxidation of xanthine to uric acid and superoxide. Superoxide spontaneously degrades to hydrogen peroxide (H2O2), and this, in the presence of HRP, reacts with Amplex Red to generate resurofin. Resurofin fluorescence was measured at 590 nm with excitation at 530-560 nm In parallel, the processed effluent was assessed spectrophotometrically at 295 nm for uric acid. The reaction mixture in 50 mM phosphate buffer, pH 7.4, contained 50 μl of the effluent, EDTA-Na2 (1 mmol/L), xanthine (0.2 mmol/L). […] The obtained values were plotted against a standard curve with known concentrations of XOR.

NOS1−/− myocytes [4] = test: Assessment of SR Ca2+ leakage with tetracaine, Example 2; assay type: cell-based, mouse
Description: Assessment of SR Ca^2+ leakage: Calcium leakage was assessed as described by Shannon et al (Shannon T. R. et al. Circ Res 2002; 91:594-600). Ventricular myocytes were paced by field stimulation at the different frequencies in normal Tyrode until cellular Ca^2+ transients reached a steady state. After the last pulse, the superfusing solution was rapidly switched to 0Na^+-0Ca^2+(Na^+ replaced by Li^+) Tyrode with or without 1 mmol/L tetracaine. In the control condition, [Ca^2+]i was monitored while 0Na^+-0Ca^2+ Tyrode buffer was applied at least 40 seconds, rapid pulse of 10 mm/L caffeine was added to cause SR Ca^2+ release. The difference between the basal and the peak total cytosolic [Ca^2+]i in the presence of caffeine is, therefore, [Ca^2+]τ. In the test condition, 0Na^+0Ca^2+ Tyrode was applied with tetracaine. In this condition, the leakage is blocked and the difference in [Ca^2+]τ between tetracaine and control condition is diastolic leakage. To calculate [Ca^2+]τ in the SR, the total SR volume was considered 3% of the cell volume and the cytosol volume, 65% of the cell volume.

NADPH oxidase (NOX) [5] = test: NOX-dependent superoxide production, lucigenin chemiluminescence in heart homogenates; assay type: biochemical, mouse; conditions: NOS1−/− cardiac homogenates
Description: NOX-dependent superoxide production: NADPH-dependent superoxide production was measured in heart homogenates using lucigenin (5 μmol/L)-enhanced chemiluminescence (β-NADPH 300 μmol/L; room temperature) on a microplate luminometer (Veritas, Turner Biosystems, Sunnyvale, Calif.). Briefly, proteins were diluted in modified Krebs-HEPES buffer. NADPH and lucigenin were added to wells just before reading. Chemiluminescence readings were expressed as integrated light units. […] Experiments also were performed in the presence of the flavoprotein inhibitor diphenyleneiodonium (DPI, 0.01 mmol/L).

[6] = molecular target: T1, xanthine oxidoreductase (XOR); test: Xanthine oxidoreductase activity, uric acid production in heart homogenates; assay type: biochemical; conditions: NOS1−/− cardiac homogenates, xanthine 0.2 mmol/L
Description: as §2

NADPH oxidase (NOX) [7] = test: NADPH oxidase dependent ONOO− production, APF fluorescence in heart homogenates; assay type: biochemical, mouse; conditions: NOS1−/− heart extracts, NADPH 0.3 mmol/L; read-out: IC50, NOX-dependent peroxynitrite production
Description: NADPH oxidase dependent and XOR dependent ONOO— production: NADPH oxidase and XOR dependent ONOO— production was measured in heart homogenates using p-aminophenyl fluorescein (APF) as indicator. Proteins were diluted in modified Krebs-HEPES buffer and incubated with NADPH or xanthine for 30 minutes at 37° C. APF was added just before the fluorescence readings, measuring at 515 nm with excitation at 490 nm.

[8] = 100 μM, paced at 4 Hz, NOS1−/− myocytes

T1 sequence (Q00519 whole entry): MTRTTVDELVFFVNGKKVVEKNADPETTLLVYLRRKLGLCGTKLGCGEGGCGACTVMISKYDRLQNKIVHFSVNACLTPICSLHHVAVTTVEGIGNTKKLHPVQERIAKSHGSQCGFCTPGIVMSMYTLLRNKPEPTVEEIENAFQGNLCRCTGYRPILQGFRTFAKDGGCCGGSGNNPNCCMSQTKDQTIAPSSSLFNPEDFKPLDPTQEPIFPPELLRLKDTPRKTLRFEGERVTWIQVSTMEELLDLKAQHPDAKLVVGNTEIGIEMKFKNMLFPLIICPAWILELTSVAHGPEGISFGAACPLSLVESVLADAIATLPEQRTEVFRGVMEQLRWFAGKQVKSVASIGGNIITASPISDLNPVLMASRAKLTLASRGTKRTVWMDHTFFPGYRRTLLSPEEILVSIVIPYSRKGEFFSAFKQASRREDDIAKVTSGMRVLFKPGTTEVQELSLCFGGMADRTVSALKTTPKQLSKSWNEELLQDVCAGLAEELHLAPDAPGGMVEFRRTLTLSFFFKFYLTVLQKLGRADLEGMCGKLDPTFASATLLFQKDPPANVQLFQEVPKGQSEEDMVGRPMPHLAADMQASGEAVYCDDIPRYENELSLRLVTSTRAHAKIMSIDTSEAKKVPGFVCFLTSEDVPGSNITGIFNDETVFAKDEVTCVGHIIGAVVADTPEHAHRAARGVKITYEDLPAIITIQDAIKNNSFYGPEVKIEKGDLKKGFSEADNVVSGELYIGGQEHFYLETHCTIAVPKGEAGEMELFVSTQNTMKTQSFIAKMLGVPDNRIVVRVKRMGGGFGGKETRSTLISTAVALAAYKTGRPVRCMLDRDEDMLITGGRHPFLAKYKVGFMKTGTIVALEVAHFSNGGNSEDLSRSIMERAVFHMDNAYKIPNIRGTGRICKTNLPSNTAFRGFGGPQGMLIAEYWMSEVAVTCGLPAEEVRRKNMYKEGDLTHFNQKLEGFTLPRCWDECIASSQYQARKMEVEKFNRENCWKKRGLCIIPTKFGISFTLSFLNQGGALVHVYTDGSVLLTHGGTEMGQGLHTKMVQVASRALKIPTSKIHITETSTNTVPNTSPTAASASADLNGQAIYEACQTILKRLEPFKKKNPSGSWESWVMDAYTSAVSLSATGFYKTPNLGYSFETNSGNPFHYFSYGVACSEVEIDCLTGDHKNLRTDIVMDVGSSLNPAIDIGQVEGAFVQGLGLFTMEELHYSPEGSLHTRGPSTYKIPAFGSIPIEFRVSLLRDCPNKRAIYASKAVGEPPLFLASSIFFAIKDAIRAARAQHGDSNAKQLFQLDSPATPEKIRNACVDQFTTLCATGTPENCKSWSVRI

SMILES	SR content (NOS1−/− myocytes [1]; [8])	diastolic Ca2+ waves (NOS1−/− myocytes [1]; [8])	suppressed SL and [Ca2+]i responses (NOS1−/− myocytes [2])	sarcomere shortening or calcium transients (wt myocytes)	Sarcoplasmic reticulum Ca2+ content (% [Ca2+]i, percent change from baseline) (NOS1−/− cardiomyocytes) [%]	Ca2+ reserves (NOS1−/− cardiomyocytes)	IC50 ([3]; NOS1−/− cardiac homogenates, xanthine 0.1 mmol/L, read-out: IC50, Amplex red XOR activity) [µM]	Diastolic Ca2+ leak, drug alone (NOS1−/− myocytes [4]; nitroglycerin 10 μmol/L, hydralazine 100 μmol/L)	concentration that decreased NOX activity / NOX dependent superoxide production (NADPH oxidase (NOX) [5]) [mmol/L]	IC50 (NADPH oxidase (NOX) [5]; NADPH 0.3 mmol/L) [µM]	IC50 [3] [µM]	XOR enzyme activity (uric acid conversion) [6]	IC50 (NADPH oxidase (NOX) [7]) [µM]	spontaneous Ca2+ transients (waves) during 0Na+/0Ca2+ treatment (NOS1−/− myocytes [1]; NOS1−/− and NOS3/NOS1−/− myocytes, 1 mmol/L tetracaine)	spontaneous Ca2+ waves (NOS1−/− myocytes [4]; tetracaine 1 mmol/L)
NCCN(CCN)/[N+]([O-])=N/O [DETA/NO, diethylenetriamine/nitric oxide adduct]	increased	did not reduce	restored towards levels similar to WT	no effect	42.8±6.5	increased	–	–	–	–	–	–	–	–	–
NNc1nncc2ccccc12 [hydralazine]	–	–	–	no effect	49.2±16.3	–	700 ± 300	–	–	–	–	–	–	–	–
O=[N+]([O-])OCC(CO[N+](=O)[O-])O[N+](=O)[O-] [nitroglycerin]	–	–	restored towards levels similar to WT	no effect	42.8±6.5	increased	–	not abolished	> 0.01	13	1000 ± 400	did display XOR-inhibitory activity	1300 ± 400	–	–
CCCCNc1ccc(C(=O)OCCN(C)C)cc1 [tetracaine]	–	–	–	–	–	–	–	–	–	–	–	–	–	abolished	abolished

— patent US20100316622A1, “DIAGNOSIS AND TREATMENT OF CARDIAC DISORDERS” (UNIVERSITY OF MIAMI, priority 2007, published 2010)
